Laboratory results reported in paper PMC9958891 (2023).

Columns and labels:
[1] = tested on: 5'-FAM-c-myc-TAMRA-3' (c-myc G4 DNA, FRET) (DNA, G4) TGAGGGTGGGTAGGGTGGGTAA; test: FRET melting; settings: K+ 100 mM, Na+ (10 mM Na3AsO4); 10 mM Tris-HCl pH 7.4; 0.2 μM DNA; compound concentration not stated; value per abstract, b23 order differs
[2] = tested on: c-myc Pu22 (c-myc G4 DNA) (DNA, G4) TGAGGGTGGGTAGGGTGGGTAA; test: UV-vis absorption titration; settings: K+ 100 mM; 10 mM Tris-HCl, pH 7.2, room temperature; 20 μM complex

| ΔTm [1] | binding constant [2] | SMILES |
| --- | --- | --- |
| ~ 15.5 °C | – | COc1ccc(CCc2cc(OC)c(OC)c(OC)c2)cc1OCCCCn1c(-c2ccccc2C(F)(F)F)nc2c3cccnc3c3ncccc3c21.[Ru+2].c1cnc2c(c1)ccc1cccnc12.c1cnc2c(c1)ccc1cccnc12 |
| ~ 16.5 °C | ~ 2.05 × 10^7 M^−1 | COc1ccc(CCc2cc(OC)c(OC)c(OC)c2)cc1OCCCCn1c(-c2ccc(C(F)(F)F)cc2)nc2c3cccnc3c3ncccc3c21.[Ru+2].c1cnc2c(c1)ccc1cccnc12.c1cnc2c(c1)ccc1cccnc12 |
